Experimental data: article PMC7539012, “Hyperphosphorylated tau aggregation and cytotoxicity modulators screen identified prescription drugs linked to Alzheimer's disease and cognitive functions” (Scientific Reports, 2020)
Where a name gives a salt, the structure may show the parent alone.

What follows are compounds tested on T1, 1N4R p-tau (assay: p-tau aggregation modulator screen of 1280-compound library (ThS fluorescence net change over 16 h)). Conditions: not given.
T1 construct: made in house; host or cells: E. coli (PIMAX system)
Type: biochemical
Parameters: key to PTAI>3SD: *: PTAI>3SD

| Compound | ThS net change |
| --- | --- |
| CC(=O)O[C@H]1CC[C@@]2(C)C(=CC[C@@H]3[C@@H]2CC[C@]2(C)C(=O)CC[C@@H]32)C1 [Dehydroisoandosterone 3-acetate] | 423 |
| C[C@H](N[C@@H](CCc1ccccc1)C(=O)O)C(=O)N1CCC[C@H]1C(=O)O.O.O [Enalaprilat dihydrate] | 438 |
| c1ccc2c(c1)Nc1ccccc1S2 [Phenothiazine] | 421 |
| C[C@]12C/C(=C/O)C(=O)C[C@@H]1CC[C@@H]1[C@@H]2CC[C@@]2(C)[C@H]1CC[C@]2(C)O [Oxymetholone] | 475 |
| CCN(CC)C(=O)[C@]1(c2ccccc2)C[C@@H]1CN.Cl [Milnacipran hydrochloride] | 415 |

Same assay, conditions: 30 µM compound, 6 µM p-tau, 16 h

| Compound | effect on p-tau aggregation in pilot screen |
| --- | --- |
| NCCc1ccc(O)c(O)c1 [Dopamine, reference compound] | none of them affected p-tau aggregation |

Same assay, conditions: 1280-compound library screen; ThS fluorescence net change over 16 h

| Compound | ThS net change |
| --- | --- |
| O=C(O)c1cccnc1 [Niacin] | 391 |
| NCCc1ccc(O)c(O)c1 [Dopamine hydrochloride] | 404 |
| C=CCN1CCCC1CNC(=O)c1cc2nn[nH]c2cc1OC.Cl (stereo not shown) [Alizapride HCl] | 383 |
| CNCCC=C1c2ccccc2CCc2ccccc21 [Nortriptyline hydrochloride] | 380 |
| CCC(=O)O[C@]1(C(=O)CCl)[C@@H](C)C[C@H]2[C@@H]3CCC4=CC(=O)C=C[C@]4(C)[C@@]3(F)[C@@H](O)C[C@@]21C [Clobetasol propionate] | 409 |
| C#C[C@]1(O)CC[C@H]2[C@@H]3CCC4=CCCC[C@@H]4[C@H]3CC[C@@]21C [Lynestrenol] | 408 |
| Cc1ccc(NC(=O)c2ccc(CN3CCN(C)CC3)cc2)cc1Nc1nccc(-c2cccnc2)n1 [Imatinib] | 409 |
| OC[C@H]1O[C@@H](Oc2ccc(O)cc2)[C@H](O)[C@@H](O)[C@@H]1O [Arbutin] | 409 |
| Nc1c2ccccc2nc2ccccc12 [Aminacrine] | 408 |
| COC(=O)CCc1ccc(OCC(O)CNC(C)C)cc1 (stereo not shown) [Esmolol hydrochloride] | 400 |
| CC(=O)Oc1ccc(C(c2ccc(OC(C)=O)cc2)c2ccccn2)cc1 [Bisacodyl] | 398 |
| Nc1nc(=O)c2nc(CNc3ccc(C(=O)N[C@@H](CCC(=O)O)C(=O)O)cc3)cnc2[nH]1 [Folic acid] | 398 |
| CC#C[C@]1(O)CC[C@H]2[C@@H]3CCC4=CC(=O)CCC4=C3[C@@H](c3ccc(N(C)C)cc3)C[C@@]21C [Mifepristone] | 382 |
| Cn1c(=O)c2[nH]cnc2n(C)c1=O [Theophylline monohydrate] | 398 |
| CC1CCc2c(N3CCC(O)CC3)c(F)cc3c(=O)c(C(=O)O)cn1c23 (stereo not shown) [Nadifloxacin] | 399 |
| O=C(O)Cc1ccc(-c2ccccc2)cc1 [Felbinac] | 405 |
| Nc1ccc(S(=O)(=O)Nc2nccs2)cc1 [Sulfathiazole] | 389 |
| Cc1nc2ccccn2c(=O)c1CCN1CCC(C(=O)c2ccc(F)cc2)CC1 [Pirenperone] | 388 |

Same assay, conditions: 1280-compound library screen; […]

| Compound | ThS net change |
| --- | --- |
| CNCC[C@@H](Oc1ccccc1C)c1ccccc1 [Tomoxetine hydrochloride] | 389 |
| C[n+]1ccccc1/C=N/O [Pralidoxime chloride] | 397 |
| OC(c1ccccc1)(c1ccccc1)C1CCNCC1 [Azacyclonol] | 400 |
| CN[C@@H]1[C@@H](O)[C@@H](O[C@@H]2[C@@H](O)[C@H](O[C@H]3OC(CN)=CC[C@H]3N)[C@@H](N)C[C@H]2N)OC[C@]1(C)O [Sisomicin sulfate] | 381 |

Same assay, conditions: flag: p-tau aggregation inhibitor, ThS net change more than 3 SD from mean

| Compound | PTAI>3SD |
| --- | --- |
| Cc1cc(C2CCCCC2)n(O)c(=O)c1.NCCO [Ciclopirox ethanolamine] | * |
| O=C1c2cccc(O)c2C(=O)c2c(O)cccc21 [1,8-Dihydroxyanthraquinone] | * |

Same assay, conditions: library screen, ThS fluorescence net change over 16 h with p-tau

| Compound | ThS net change |
| --- | --- |
| Cc1cc(C2CCCCC2)n(O)c(=O)c1.NCCO [Ciclopirox ethanolamine] | 20 |
| CC(=O)Oc1ccccc1C(=O)Nc1ncc([N+](=O)[O-])s1 [Nitazoxanide] | 198 |
| O=C1c2cccc(O)c2C(=O)c2c(O)cccc21 [1,8-Dihydroxyanthraquinone] | 25 |
| O=C(O)c1cc(-c2ccc(F)cc2F)ccc1O [Diflunisal] | 304 |
| O=c1n(CCCN2CCN(c3cccc(Cl)c3)CC2)nc2ccccn12 [Trazodone hydrochloride] | 316 |

Same assay, conditions: p-tau aggregation modulator screen of 1280-compound library; ThS fluorescence net change

| Compound | ThS net change |
| --- | --- |
| COc1ccc2[nH]cc(CCNC(C)=O)c2c1 [Melatonin] | 356 |
| Cl.NC1CCN(c2nc3c(cc2F)c(=O)c(C(=O)O)cn3-c2ccc(F)cc2F)C1 (stereo not shown) [Tosufloxacin hydrochloride] | 354 |
| CC(C)(C)NCC(O)c1ccc(O)c(CO)c1 (stereo not shown) [Salbutamol] | 367 |
| CN[C@@H]1[C@H](O)[C@H](NC)[C@H]2O[C@@]3(O)C(=O)C[C@@H](C)O[C@H]3O[C@@H]2[C@H]1O.Cl.Cl [Spectinomycin dihydrochloride] | 361 |
| CCOC(=O)C1=C(COCCN)NC(C)=C(C(=O)OC)C1c1ccccc1Cl (stereo not shown) [Amlodipine] | 351 |
| N[C@@H](C(=O)N[C@@H]1C(=O)N2C(C(=O)O)=C(Cl)CC[C@H]12)c1ccccc1 [Loracarbef] | 361 |
| NS(=O)(=O)c1cc2c(cc1Cl)N=CNS2(=O)=O [Chlorothiazide] | 359 |
| Fc1ccc([C@@H]2CCNC[C@H]2COc2ccc3c(c2)OCO3)cc1 [Paroxetine Hydrochloride] | 363 |
| CCN(CC)CCNC(=O)c1cc(Br)c(N)cc1OC [Bromopride] | 373 |
| CN(C)CCCC1(c2ccc(F)cc2)OCc2cc(C#N)ccc21 (stereo not shown) [Citalopram Hydrobromide] | 351 |
| Cc1ccc(C(=O)c2ccc(CC(=O)O)n2C)cc1 [Tolmetin sodium salt dihydrate] | 364 |
| NCc1ccccc1CC(=O)N[C@@H]1C(=O)N2C(C(=O)O)=C(CSc3nnnn3CC(=O)O)CS[C@H]12 [Ceforanide] | 351 |
| NCCCC[C@H](N[C@@H](CCc1ccccc1)C(=O)O)C(=O)N1CCC[C@H]1C(=O)O [Lisinopril] | 328 |
| O=C(NCC1CCCCN1)c1cc(OCC(F)(F)F)ccc1OCC(F)(F)F (stereo not shown) [Flecainide acetate] | 354 |
| NC(=O)c1cnccn1 [Pyrazinamide] | 370 |
| OCCN1C[C@H](O)[C@@H](O)[C@H](O)[C@H]1CO [Miglitol] | 372 |
| CCC1(c2ccccc2)C(=O)NCNC1=O [Primidone] | 346 |
| CO[C@H]1C[C@H](O[C@H]2[C@H](C)[C@@H](O[C@@H]3O[C@H](C)C[C@H](N(C)C)[C@H]3OC(C)=O)[C@@H](C)C[C@@]3(CO3)C(=O)[C@H](C)[C@@H](OC(C)=O)[C@@H](C)[C@@H](C)OC(=O)[C@@H]2C)O[C@@H](C)[C@@H]1OC(C)=O [Troleandomycin] | 357 |
| Cc1cccc(Nc2ccccc2C(=O)O)c1C [Mefenamic acid] | 353 |

Same assay, conditions: p-tau aggregation modulator screen of 1280-compound library; […]

| Compound | ThS net change |
| --- | --- |
| C[N+]1(C)CCCC(OC(=O)C(O)(c2ccccc2)c2ccccc2)C1 (stereo not shown) [Mepenzolate bromide] | 366 |
| Oc1ccc2c3c1O[C@H]1[C@@H](O)CC[C@@]4(O)[C@@H](C2)N(CC2CCC2)CC[C@]314 [Nalbuphine hydrochloride] | 371 |

Same assay, conditions: p-tau aggregation modulator screen of the compound library, ThS fluorescence net change

| Compound | ThS net change |
| --- | --- |
| CC[C@@]1(O)C(=O)OCc2c1cc1n(c2=O)Cc2cc3c(CN(C)C)c(O)ccc3nc2-1 [Topotecan] | 5499 |
| CCN[C@H]1C[C@H](C)S(=O)(=O)c2sc(S(N)(=O)=O)cc21 [Dorzolamide hydrochloride] | 463 |
| C=CC1=C(C(=O)O)N2C(=O)[C@@H](NC(=O)/C(=N\O)c3csc(N)n3)[C@H]2SC1 [Cefdinir] | 454 |
| Cn1c(NCCN(CCO)CCCc2ccc([N+](=O)[O-])cc2)cc(=O)n(C)c1=O [Nifekalant] | 438 |
| COc1ccccc1OCC(O)CN1CCN(CC(=O)Nc2c(C)cccc2C)CC1 (stereo not shown) [Ranolazine] | 414 |
| CCC1(C)CC(=O)NC1=O (stereo not shown) [Ethosuximide] | 433 |
| O=S(=O)(O)c1cc(O)ccc1O [Ethamsylate] | 455 |
| CCOc1nc2cccc(C(=O)O)c2n1Cc1ccc(-c2ccccc2-c2nnn[nH]2)cc1 [Candesartan] | 415 |
| CC(=O)CC(c1ccccc1)c1c(O)c2ccccc2oc1=O (stereo not shown) [Warfarin] | 413 |
| C[C@]1(Cn2ccnn2)[C@H](C(=O)O)N2C(=O)C[C@H]2S1(=O)=O [Tazobactam] | 834 |
| CN[C@H]1CC[C@@H](c2ccc(Cl)c(Cl)c2)c2ccccc21 [Sertraline] | 428 |
| CC1(C)S[C@@H]2[C@H](NC(=O)Cc3ccccc3)C(=O)N2[C@H]1C(=O)O.CC1(C)S[C@@H]2[C@H](NC(=O)Cc3ccccc3)C(=O)N2[C@H]1C(=O)O.c1ccc(CNCCNCc2ccccc2)cc1 [Benzathine benzylpenicillin] | 455 |
| C[C@](N)(Cc1ccc(O)c(O)c1)C(=O)O [Methyldopa (L,-)] | 447 |
| CN[C@@H]1[C@@H](O[C@H]2O[C@H](CO)[C@@H](N)[C@H](O)[C@H]2O)OC2C[C@@H](N)[C@@H](O[C@H]3[C@H](O)[C@@H](O)[C@H](N)C[C@@H]3N)OC2[C@@H]1O (stereo partly shown) [Apramycin] | 416 |
| CCC(C)(C)C(=O)O[C@H]1C[C@@H](C)C=C2C=C[C@H](C)[C@H](CC[C@@H]3C[C@@H](O)CC(=O)O3)[C@H]21 [Simvastatin] | 458 |
| CC(C)(C)NC(=O)[C@@H]1C[C@@H]2CCCC[C@@H]2CN1C[C@@H](O)[C@H](Cc1ccccc1)NC(=O)[C@H](CC(N)=O)NC(=O)c1ccc2ccccc2n1 [Saquinavir mesylate] | 568 |
| OCCOCCN1CCN(C2=Nc3ccccc3Sc3ccccc32)CC1 [Quetiapine hemifumarate] | 424 |
| O=C(O)CNC(=O)C(CS)Cc1ccccc1 (stereo not shown) [Thiorphan] | 462 |
| S=c1[nH]cnc2nc[nH]c12 [Mercaptopurine] | 426 |
| CC(C)(C)NC[C@H](O)c1ccc(O)c(CO)c1 [Levalbuterol hydrochloride] | 422 |
